PMC4864809, “C‐type natriuretic peptide in combination with sildenafil attenuates proliferation of rhabdomyosarcoma cells” (Cancer Medicine, 2016)

Key:
[1] = tested on: RD‐GC‐B cells; assay: Caspase‐3 activity (Nuc‐View 488 Caspase‐3 assay kit); assay type: cell-based, human; conditions: same conditions as proliferation assay, Nuc‐View 488 substrate, data not shown
[2] = tested on: Notch, Wnt, Hedgehog, and PI3K/AKT/mTOR signaling pathways in RD‐GC‐B cells; assay: Western blot of HES‐1, β‐catenin, GLI1 and phosphorylated Akt, RD‐GC‐B; assay type: cell-based, human; conditions: CNP 1 µM, sildenafil 100 µM, 4 hours
Experimental: (§1) A total of 1 × 10^5 cells per well were plated in 12‐well plastic plates in complete media. Cells were serum‐starved with RPMI‐1640 medium containing 1% serum for 24 h, and then treated with CNP (1 μmol/L) and/or sildenafil (100 μmol/L) for indicated times. Cells were lysed with NP‐40 buffer (0.5% NP‐40, 10 mmol/L Tris [pH 7.6], 0.15 mol/L NaCl, 1.5 mmol/L […]) containing phosphatase inhibitor cocktail (Nacalai Tesque). Samples were electrophoresed on 4–15% gradient gels (Bio‐Rad, Hercules, CA, USA) and transferred onto polyvinylidene difluoride transfer membranes (Millipore Bedford, MA). Antibody binding was detected with an enhanced chemiluminescence detection system (Amersham Pharmacia Biotech, Piscataway, NJ).

[3] = tested on: RD‐GC‐B and RMS‐YM‐GC‐B cells; assay: Morphological appearance of cell death during proliferation assay; assay type: cell-based; conditions: during 96 h; CNP 1 μmol/L and/or sildenafil 100 μmol/L
Experimental: (§2) A total of 2000 cells per well were seeded into 96‐well plates in 100 μL of culture medium. After 24 h, the wells were washed twice with 1% serum‐free RPMI‐1640 medium and subsequently incubated in this medium. Twenty‐four hours after serum deprivation, CNP (1 μmol/L) and/or sildenafil (100 μmol/L) were added, and the cells were incubated for 0–4 days. Cell proliferation was determined in sextuplicate using the Cell Counting Kit‐8 (Nacalai Tesque, Kyoto, Japan).

[4] = tested on: RD‐GC‐B xenograft tumors; assay: Xenograft efficacy study; assay type: in vivo; conditions: for tumor growth (tumor volume): CNP 2.5 μg/kg/min continuous s.c. infusion, versus vehicle; for tumor growth (tumor volume) / Ki67 labeling index: n = 7–8; for Ki67 labeling index: RD‐GC‐B tumors, immunohistochemistry, relative to the control group; for Phosphorylated ERK levels in xenograft tumors: pERK1/2 versus total ERK1/2, western blot densitometry, after 4 weeks of treatment
Experimental: All animal experiments were performed according to a protocol approved by the Animal Care Ethics Committee of the National Cerebral and Cardiovascular Center Research Institute. Five‐week‐old male BALB/c nu/nu mice and 5‐week‐old male nonobese diabetic/severe combined immunodeficiency (NOD)⁄severe combined immunodeficiency (SCID) mice were purchased from Japan SLC (Shizuoka, Japan) and Oriental Yeast (Tokyo, Japan), respectively.
RD‐GC‐B cells (1–3 × 10^7 cells) were subcutaneously implanted into the chest and abdominal area of NOD/SCID mice. When the subcutaneous tumors reached a diameter of 10–12 mm, they were resected, divided into 5‐mm pieces, and reimplanted into the chest area of BALB/c nu/nu mice. Ten days after tumor implantation, administration of CNP and/or sildenafil was initiated. CNP was continuously infused using an osmotic mini‐pump (Alzet Model 1003D; Duret Corporation, Cupertino, CA), as previously reported 14. CNP was subcutaneously administered at a rate of 2.5 μg/kg/min, and treatment continued for 4 weeks. Sildenafil was intraperitoneally administered at a dose of 20 mg/kg every other day for 4 weeks. Tumor volume was calculated by the formula: V (mm^3) = 0.5 × a × b ^2, where a is the longest tumor axis and b is the shortest tumor axis.
Immunohitochemical staining was performed by the avidin‐biotin‐peroxidase complex (ABC) method using the Vectastain Elite ABC kit (Vector, Burlingame, CA) as described previously 14. Because the anti‐Ki67 antibody was mouse monoclonal antibody, a mouse on mouse immunodetection kit (Vector) was used. Images of immunohistochemical staining were captured using a FSX100 Bio Imaging Navigator microscope (Olympus, Tokyo, Japan). Ki67‐positive and ‐negative cells were counted using the CellSens Dimension software (Olympus). Ten randomly selected fields per section and 7–8 sections per animal were analyzed at 20 × magnification.

[5] = tested on: Raf/MEK/ERK signaling in RD‐GC‐B cells; assay: Western blot of Raf/MEK/ERK phosphorylation, RD‐GC‐B; assay type: cell-based, human; conditions: for ERK phosphorylation: CNP 1 μmol/L and/or sildenafil 100 μmol/L, 1–8 h
Experimental: as §1

[6] = tested on: Raf/MEK/ERK signaling in RMS‐YM‐GC‐B cells; assay: Western blot of Raf/MEK/ERK phosphorylation, RMS‐YM‐GC‐B; assay type: cell-based, human; conditions: for ERK phosphorylation: CNP 1 μmol/L and/or sildenafil 100 μmol/L, 1–8 h
Experimental: as §1

[7] = tested on: ERK phosphorylation in parental RD cells; assay: Western blot of ERK phosphorylation, parental RD; assay type: cell-based, human; conditions: data not shown
Experimental: as §1

[8] = target: T1, GC‐B receptors in RD cells (Homo sapiens, UniProt P20594); assay: Measurement of intracellular cGMP (RIA) in RD cells; assay type: cell-based; conditions: 15 min
T1 construct: host or cells: RD cells
T1 sequence (P20594 23-1047): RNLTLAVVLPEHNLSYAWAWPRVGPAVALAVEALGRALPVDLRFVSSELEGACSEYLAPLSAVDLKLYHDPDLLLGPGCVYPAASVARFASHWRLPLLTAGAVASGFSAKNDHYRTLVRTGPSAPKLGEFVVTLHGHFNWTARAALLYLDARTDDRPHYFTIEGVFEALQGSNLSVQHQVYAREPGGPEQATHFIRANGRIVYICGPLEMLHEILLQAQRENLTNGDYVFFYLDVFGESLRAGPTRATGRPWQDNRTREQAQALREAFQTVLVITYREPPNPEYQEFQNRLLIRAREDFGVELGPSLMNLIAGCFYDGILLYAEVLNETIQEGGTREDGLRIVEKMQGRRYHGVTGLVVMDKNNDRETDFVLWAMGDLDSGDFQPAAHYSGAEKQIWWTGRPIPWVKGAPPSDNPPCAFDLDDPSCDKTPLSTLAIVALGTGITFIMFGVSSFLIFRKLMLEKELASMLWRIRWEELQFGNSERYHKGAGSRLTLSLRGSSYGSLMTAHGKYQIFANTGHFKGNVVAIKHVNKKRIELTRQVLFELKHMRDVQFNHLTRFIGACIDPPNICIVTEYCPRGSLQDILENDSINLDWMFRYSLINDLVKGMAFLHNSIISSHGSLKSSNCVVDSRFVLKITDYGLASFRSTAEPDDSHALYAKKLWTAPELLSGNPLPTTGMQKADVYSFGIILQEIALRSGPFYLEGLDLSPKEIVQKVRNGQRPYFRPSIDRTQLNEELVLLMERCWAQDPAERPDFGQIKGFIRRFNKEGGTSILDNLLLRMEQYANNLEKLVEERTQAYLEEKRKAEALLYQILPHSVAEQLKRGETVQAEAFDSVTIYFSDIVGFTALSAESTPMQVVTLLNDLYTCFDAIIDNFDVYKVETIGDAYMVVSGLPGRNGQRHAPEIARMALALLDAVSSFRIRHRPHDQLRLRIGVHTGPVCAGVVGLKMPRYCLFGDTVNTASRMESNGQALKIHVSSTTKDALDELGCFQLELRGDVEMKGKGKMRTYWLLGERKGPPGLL
Experimental: (§3) Rhabdomyosarcoma cells were seeded onto 24‐well plastic plates and incubated for 24 h. After the cells were confluent as a monolayer, they were washed twice with 500 μL of serum‐free RPMI‐1640 and incubated in serum‐free medium for 24 h. CNP was dissolved in 5 mmol/L isobutylmethylxanthine (IBMX) at final concentrations of 1 nmol/L–10 μmol/L. Various concentrations of CNP were added to the medium, and the monolayer was incubated at 37°C for an additional 15 min. The medium was rapidly removed by aspiration, and 400 μL of 70% ethanol containing 100 μmol/L hydrochloric acid (HCl) was added to lyse the cells. The cGMP content of the dried extract was quantitated using a radioimmunoassay (RIA) kit (Yamasa Shoyu, Tokyo, Japan).

[9] = target: T2, GC‐B in RMS‐YM‐GC‐B cells (Homo sapiens, UniProt P20594); assay: Measurement of intracellular cGMP (RIA) in RMS‐YM‐GC‐B cells; assay type: cell-based; conditions: RMS‐YM‐GC‐B cells stably expressing GC‐B
T2 construct: host or cells: RD and RMS‐YM cells, retrovirally infected and puromycin-selected (RD‐GC‐B, RMS‐YM‐GC‐B)
T2 sequence (P20594 23-1047): T1 sequence (P20594 23-1047)
Text: (§4) The plasmid used for preparing retrovirus vector expressing GC‐B‐FLAG (pCX4 puro GC‐B‐FLAG) was constructed by introducing the GC‐B‐FLAG fragment, amplified by polymerase chain reaction (PCR) from human GC‐B obtained from Promega (Madison, WI), into the NotI site of pCX4 puro. The vector was transfected into BOSC cells with pE‐eco and pGp (TAKARA BIO, Kyoto, Japan) using FuGENE6 (Promega) to produce ecotropic retrovirus. After transfection, culture supernatants were collected, and filtered. Retroviral infection of RD and RMS‐YM cells was performed using the retrovirus and Ecotropic Receptor Booster (TAKARA BIO). After infection, cells were selected with puromycin. These resultant cell lines are referred to as RD‐GC‐B or RMS‐YM‐GC‐B.
(§5) Rhabdomyosarcoma cells were seeded onto 24‐well plastic plates and incubated for 24 h. After the cells were confluent as a monolayer, they were washed twice with 500 μL of serum‐free RPMI‐1640 and incubated in serum‐free medium for 24 h. CNP was dissolved in 5 mmol/L isobutylmethylxanthine (IBMX) at final concentrations of 1 nmol/L–10 μmol/L. Various concentrations of CNP were added to the medium, and the monolayer was incubated at 37°C for an additional 15 min. […] The cGMP content of the dried extract was quantitated using a radioimmunoassay (RIA) kit (Yamasa Shoyu, Tokyo, Japan).

[10] = Plasma CNP measurements (CNP RIA kit); assay type: in vivo, C57BL/6 mice; conditions: continuous s.c. infusion 2.5 μg/kg/min by osmotic mini‐pump, blood 3 days after implantation, n = 5 versus untreated n = 10
Experimental: Osmotic mini‐pumps containing CNP were implanted subcutaneously in 6‐week‐old male C57BL/6 mice purchased from Japan SLC. CNP was administered at a rate of 2.5 μg/kg/min, and blood samples from these treated mice and untreated mice were withdrawn 3 days after the implantation. CNP content was determined using a CNP RIA kit (Phoenix Pharmaceuticals, Belmont, CA).

[11] = tested on: ERK phosphorylation in parental RMS‐YM cells; assay: Western blot of ERK phosphorylation, parental RMS‐YM; assay type: cell-based, human; conditions: data not shown
Experimental: as §1

[12] = tested on: parental RD cells; assay: Cell proliferation assay, parental RD; assay type: cell-based, human; conditions: data not shown
Experimental: as §2

[13] = target: T3, GC‐B in RD‐GC‐B cells (Homo sapiens, UniProt P20594); assay: Measurement of intracellular cGMP (RIA) in RD‐GC‐B cells; assay type: cell-based; conditions: RD‐GC‐B cells stably expressing GC‐B
T3 construct: host or cells: RD and RMS‐YM cells, retrovirally infected and puromycin-selected (RD‐GC‐B, RMS‐YM‐GC‐B)
T3 sequence (P20594 23-1047): T1 sequence (P20594 23-1047)
Text: as §4, §5

[14] = subcutaneous infusion of CNP at 2.5 μg/kg/min; cited from earlier work
Text: There are some limitations in this study. First, RMS cells stably expressing GC‐B expressed higher levels of GC‐B than clinical samples. However, given that the recurrent sample expressed a very high level of GC‐B, the findings made using RMS cells stably expressing GC‐B are still quite valuable.

[15] = target: T4, GC‐B receptors in RMS‐YM cells (Homo sapiens, UniProt P20594); assay: Measurement of intracellular cGMP (RIA) in RMS‐YM cells; assay type: cell-based; conditions: 15 min
T4 construct: host or cells: RMS‐YM cells
T4 sequence (P20594 23-1047): T1 sequence (P20594 23-1047)
Experimental: as §3

[16] = tested on: parental RMS‐YM cells; assay: Cell proliferation assay, parental RMS‐YM; assay type: cell-based, human; conditions: data not shown
Experimental: as §2

[17] = tested on: RMS‐YM‐GC‐B cells; assay: Cell proliferation assay (Cell Counting Kit‐8 / WST‐8), RMS‐YM‐GC‐B; assay type: cell-based, human; conditions: CNP 1 μmol/L, 96 h, 1% serum, versus solvent control, n = 6, three independent experiments
Experimental: as §2

[18] = tested on: RD‐GC‐B cells; assay: Cell proliferation assay (Cell Counting Kit‐8 / WST‐8), RD‐GC‐B; assay type: cell-based, human; conditions: CNP 1 μmol/L, 96 h, 1% serum, versus solvent control, n = 6, three independent experiments
Experimental: as §2

[19] = sildenafil 20 mg/kg i.p. every other day, 4 weeks
[20] = CNP 1 nmol/L–10 μmol/L with IBMX, 37°C, serum-free, RIA, average of four wells
[21] = CNP 1 μmol/L, sildenafil 100 μmol/L

CCCc1nn(C)c2c(=O)[nH]c(-c3cc(S(=O)(=O)N4CCN(C)CC4)ccc3OCC)nc12 [sildenafil]
caspase‐3 activity (apoptosis) [1]: not significantly induced | Expression of HES‐1, β‐catenin, and GLI1, and phosphorylation of Akt [2]: not changed | morphological appearance of cell death [3]: not observed | tumor growth (tumor volume) [4, 19]: did not suppress tumor growth significantly | Ki67 labeling index [4]: significantly reduced | Phosphorylated ERK levels in xenograft tumors [4]: ~30 % of control levels | ERK phosphorylation [5]: did not cause dephosphorylate ERK | ERK phosphorylation [6]: did not cause dephosphorylate ERK

C‐type natriuretic peptide [CNP]
reduction in ERK phosphorylation [7]: no effect | caspase‐3 activity (apoptosis) [1]: not significantly induced | Expression of HES‐1, β‐catenin, and GLI1, and phosphorylation of Akt [2]: not changed | CNP concentration at which cGMP levels almost reached a plateau ([8]; with IBMX): ~1 µmol/L | intracellular cGMP levels [8, 20]: increased the intracellular cGMP levels in a dose‐dependent manner | CNP‐dependent cGMP production [9]: robust increases | morphological appearance of cell death [3]: not observed | plasma concentration of CNP [10]: significantly increased | reduction in ERK phosphorylation [11]: no effect | effect on proliferation [12]: no effect | body weight of mice during treatment (tolerability) ([4]; 4 weeks, CNP 2.5 μg/kg/min s.c., sildenafil 20 mg/kg i.p. every other day, relative to control group): did not induce weight loss | tumor growth (tumor volume) [4, 19]: did not suppress tumor growth significantly | Ki67 labeling index [4]: significantly reduced | Phosphorylated ERK levels in xenograft tumors [4]: ~30 % of control levels | CNP‐dependent cGMP production [13]: robust increases | hypotension [14]: does not cause hypotension | ERK phosphorylation [5]: dephosphorylation of ERK | phosphorylation of Raf‐1 and MEK [5, 21]: Dephosphorylation | CNP concentration at which cGMP levels almost reached a plateau ([15]; with IBMX): ~1 µmol/L | intracellular cGMP levels [15, 20]: increased the intracellular cGMP levels in a dose‐dependent manner | ERK phosphorylation [6]: dephosphorylation of ERK | phosphorylation of Raf‐1 and MEK [6, 21]: Dephosphorylation | effect on proliferation [16]: no effect | cell proliferation [17]: significantly attenuated | cell proliferation [18]: significantly attenuated
